In US10668118B2, “Microbial consortium and uses thereof” (The Regents of the University of California, priority 2016, dated 2020):
“Also recorded” adds a separate entry of the source.

Tested on: CD4^+CD25^+FOXP3^+ cells
Assay: Ex vivo dendritic cell challenge and T cell co-culture with 12,13-DiHOME
Type: cell-based, human
Description: Ex vivo dendritic cell challenge and T cell co-culture. Fecal samples from five of ten NGM1 and seven of eight NGM3 neonates that had undergone metabolic profiling were used (biological replicates). Excluded samples from these groups had insufficient volume for analyses. Fecal samples were homogenized 1 g ml^−1 (w:v) in pre-warmed phosphate-buffered saline (PBS) containing 20% FBS (FBS). Samples were vortexed, incubated (37° C., 10 min) and centrifuged (14,000 rpm, 30 min). Supernatant was filter-sterilized through a 0.2-μm filter before being used in the dendritic cell (DC) T cell assay described below. PBS was used as the negative control. Treatment conditions used for the DiHOME experiment included: 75 μM, 130 μM and 200 μM 12,13 DiHOME (Cayman Chemical, Ann Arbor, Mich.) solubilized in 0.4%, 0.15% and 0.05% DMSO, respectively. DiHOME solutions were added to R10 media (Roswell Park Memorial Institute media 1640 with 10% heat-inactivated FBS (antigen activator) and 2 mM 1-glutamine and 100 U ml^−1 penicillin-streptomycin added; Life Technologies) and exposed to DCs within 1 h of preparation. Controls included PBS and DMSO (delivered in R10 media) at corresponding percentages used to dissolve the different concentrations of DiHOME.
Peripheral blood mononuclear cells (PBMCs) were purified from plasma obtained from healthy, de-identified human donors (Blood Centers of the Pacific, San Francisco, Calif.) through the cell-sourcing program that ensures donor confidentiality. Donors signed an agreement acknowledging that their blood may be used for research. PBMCs were isolated using Ficoll-Hypaque gradient centrifugation, washed twice with R10 media and incubated for 18 h. Dendritic cells (DCs) were isolated from PBMCs using the EasySep Human Pan-DC Pre-Enrichment Kit (STEMCELL Technologies, Vancouver, BC). DCs (0.5×10^6 cells ml^−1) from two donors (biological replication) were treated in triplicate (treatment replicate) with either cell-free fecal water ([…]) or varying concentrations of DiHOME, and cultured in R10 media supplemented with 10 ng ml^−1 GM-CSF and 20 ng ml^−1 IL-4 at 37° C.^27 for 2 d, for the fecal-water assay, or 5 d, for the DiHOME experiment. For the DiHOME experiment, freshly prepared media containing DiHOME or control exposures was replaced every 48 h. For the fecal-water experiment, the assay was repeated twice on one donor (technical replicates) and once on donor B owing to insufficient numbers of cells recovered from the latter donor. Treatment replicates were also considered biological replicates because the human donor cells are not clonal.
Twenty-four hours before co-culture with CD4^+ T cells, DC maturation was stimulated by using DC growth mediators (10 ng ml^−1 […] [(TNF-α), 10 ng ml^−1 IL-1b, 10 ng ml^−1 IL-6 and […] (PGE2)]. In preparation for co-culture, DCs were washed in fresh R10 media, counted via flow cytometry and plated in TexMACs Medium (Miltenyi Biotec, San Diego, Calif.) at 0.5×10^6 live CD45^+ cells per well.
Autologous T lymphocytes were purified from the PBMCs using a naïve CD4^+ T cell isolation kit (Miltenyi Biotec). After purification, naïve autologous CD4^+ T cells were suspended in the TexMACS Medium (Miltenyi Biotec) and added to the treated DCs at a ratio of 10:1 in the presence of soluble anti-CD28 and anti-CD49d ([…]). […] Cytokine secretion was evaluated by cytometric bead array, following the manufacturer's protocol (BD Biosciences). […]

`CCCCCC(O)C(O)C/C=C\CCCCCCCC(=O)O` (centres unmarked) [12,13-DiHOME] was tested, and the “proportion of CD4^+CD25^+FOXP3^+ cells” value (75 μM, compared to vehicle control (LME P=0.04)) was “significantly reduced”, the “proportion of CD4^+CD25^+FOXP3^+ cells” value (130 μM, compared to vehicle control (LME P<0.001)) was “significantly reduced” and the “effect size for the suppression of CD4^+CD25^+FOXP3^+” value (130 μM, preliminary assays) was “approximately seven”. The “proportion of CD4^+CD25^+FOXP3^+ cells” value (200 μM, compared to vehicle control (LME P=0.001)) was “significantly reduced” and the “proportion of CD4^+CD25^+FOXP3^+ cells” value (all concentrations examined, compared with vehicle treatment) was “recapitulated the effect of NGM3 fecal water; also recorded: reduced”.
